{
  "source": "patent US12281080B2",
  "about": "“Quinoline-based compounds and methods of inhibiting CDK8/19” (University of South Carolina, priority 2018, dated 2025)",
  "key": {"[1]": {"target": "CAMK1 (Homo sapiens (Human), UniProt Q14012)", "test": "KINOMEscan scanMAX", "format": "binding", "conditions": "2000 nM; read-out: Percent Control"}, "[2]": {"target": "EPHA8 (Homo sapiens (Human), UniProt P29322)", "sequence (P29322 28-1005)": "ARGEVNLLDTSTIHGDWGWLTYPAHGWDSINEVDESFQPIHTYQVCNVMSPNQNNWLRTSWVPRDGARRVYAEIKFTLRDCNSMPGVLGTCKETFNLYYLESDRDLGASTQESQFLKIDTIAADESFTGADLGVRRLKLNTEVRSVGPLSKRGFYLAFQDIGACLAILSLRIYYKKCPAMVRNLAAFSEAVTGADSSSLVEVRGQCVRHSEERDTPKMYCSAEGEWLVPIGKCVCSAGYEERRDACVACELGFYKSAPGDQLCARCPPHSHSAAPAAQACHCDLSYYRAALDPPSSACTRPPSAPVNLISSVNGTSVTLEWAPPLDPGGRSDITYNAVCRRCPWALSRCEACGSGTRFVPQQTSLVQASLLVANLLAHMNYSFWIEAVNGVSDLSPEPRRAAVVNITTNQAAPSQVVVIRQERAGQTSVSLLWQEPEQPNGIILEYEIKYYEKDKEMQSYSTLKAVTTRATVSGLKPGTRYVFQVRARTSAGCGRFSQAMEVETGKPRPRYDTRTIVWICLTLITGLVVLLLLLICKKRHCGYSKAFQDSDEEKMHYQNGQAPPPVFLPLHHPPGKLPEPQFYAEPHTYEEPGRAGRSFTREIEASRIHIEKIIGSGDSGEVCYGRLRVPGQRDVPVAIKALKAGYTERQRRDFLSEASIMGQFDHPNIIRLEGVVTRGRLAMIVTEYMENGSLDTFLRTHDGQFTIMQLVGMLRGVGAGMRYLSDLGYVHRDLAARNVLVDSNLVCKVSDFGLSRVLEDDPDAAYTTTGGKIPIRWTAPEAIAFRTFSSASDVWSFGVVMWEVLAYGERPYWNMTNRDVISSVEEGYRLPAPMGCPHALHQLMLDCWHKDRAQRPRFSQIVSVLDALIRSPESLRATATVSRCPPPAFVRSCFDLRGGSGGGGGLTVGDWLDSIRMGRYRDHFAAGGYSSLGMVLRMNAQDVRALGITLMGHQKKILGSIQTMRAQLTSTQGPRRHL", "test": "KINOMEscan scanMAX", "format": "binding", "conditions": "2000 nM; read-out: Percent Control"}, "[3]": {"target": "CAMK2G (Homo sapiens (Human), UniProt Q13555)", "test": "KINOMEscan scanMAX", "format": "binding", "conditions": "2000 nM; read-out: Percent Control"}, "[4]": {"target": "FLT3(D835V) (Homo sapiens (Human), UniProt P36888, D835V)", "test": "KINOMEscan scanMAX", "format": "binding", "conditions": "2000 nM; read-out: Percent Control"}, "[5]": {"target": "IKK-beta (IKBKB) (Homo sapiens (Human), UniProt O14920)", "test": "KINOMEscan scanMAX", "format": "binding", "conditions": "2000 nM; read-out: Percent Control"}, "[6]": {"target": "MYO3A (Homo sapiens (Human), UniProt Q8NEV4)", "test": "KINOMEscan scanMAX", "format": "binding", "conditions": "2000 nM; read-out: Percent Control"}, "[7]": {"target": "ACVR1B (Homo sapiens (Human), UniProt P36896)", "test": "KINOMEscan scanMAX", "format": "binding", "conditions": "2000 nM; read-out: Percent Control"}, "[8]": {"target": "VEGFR2 (KDR) (Homo sapiens (Human), UniProt P35968)", "test": "KINOMEscan scanMAX", "format": "binding", "conditions": "2000 nM; read-out: Percent Control"}, "[9]": {"target": "CDK19 (Homo sapiens (Human), UniProt Q9BWU1)", "sequence (Q9BWU1 whole entry)": "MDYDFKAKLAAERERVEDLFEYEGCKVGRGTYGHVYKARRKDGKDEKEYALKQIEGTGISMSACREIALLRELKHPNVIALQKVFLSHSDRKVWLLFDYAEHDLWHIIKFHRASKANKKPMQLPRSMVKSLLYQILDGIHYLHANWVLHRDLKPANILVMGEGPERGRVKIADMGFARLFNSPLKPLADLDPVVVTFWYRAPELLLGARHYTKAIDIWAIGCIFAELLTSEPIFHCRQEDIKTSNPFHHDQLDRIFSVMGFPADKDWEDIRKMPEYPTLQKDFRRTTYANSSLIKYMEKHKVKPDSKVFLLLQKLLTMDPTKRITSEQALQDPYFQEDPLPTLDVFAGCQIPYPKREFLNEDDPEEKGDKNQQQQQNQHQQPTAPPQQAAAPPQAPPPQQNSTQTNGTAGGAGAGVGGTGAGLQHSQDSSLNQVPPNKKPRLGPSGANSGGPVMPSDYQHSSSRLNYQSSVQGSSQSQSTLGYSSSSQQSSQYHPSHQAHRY", "test": "DiscoverX Kd assay"}, "[10]": {"target": "RET(V804L) (Homo sapiens (Human), UniProt P07949, V804L)", "sequence (P07949 29-1114 V804L)": "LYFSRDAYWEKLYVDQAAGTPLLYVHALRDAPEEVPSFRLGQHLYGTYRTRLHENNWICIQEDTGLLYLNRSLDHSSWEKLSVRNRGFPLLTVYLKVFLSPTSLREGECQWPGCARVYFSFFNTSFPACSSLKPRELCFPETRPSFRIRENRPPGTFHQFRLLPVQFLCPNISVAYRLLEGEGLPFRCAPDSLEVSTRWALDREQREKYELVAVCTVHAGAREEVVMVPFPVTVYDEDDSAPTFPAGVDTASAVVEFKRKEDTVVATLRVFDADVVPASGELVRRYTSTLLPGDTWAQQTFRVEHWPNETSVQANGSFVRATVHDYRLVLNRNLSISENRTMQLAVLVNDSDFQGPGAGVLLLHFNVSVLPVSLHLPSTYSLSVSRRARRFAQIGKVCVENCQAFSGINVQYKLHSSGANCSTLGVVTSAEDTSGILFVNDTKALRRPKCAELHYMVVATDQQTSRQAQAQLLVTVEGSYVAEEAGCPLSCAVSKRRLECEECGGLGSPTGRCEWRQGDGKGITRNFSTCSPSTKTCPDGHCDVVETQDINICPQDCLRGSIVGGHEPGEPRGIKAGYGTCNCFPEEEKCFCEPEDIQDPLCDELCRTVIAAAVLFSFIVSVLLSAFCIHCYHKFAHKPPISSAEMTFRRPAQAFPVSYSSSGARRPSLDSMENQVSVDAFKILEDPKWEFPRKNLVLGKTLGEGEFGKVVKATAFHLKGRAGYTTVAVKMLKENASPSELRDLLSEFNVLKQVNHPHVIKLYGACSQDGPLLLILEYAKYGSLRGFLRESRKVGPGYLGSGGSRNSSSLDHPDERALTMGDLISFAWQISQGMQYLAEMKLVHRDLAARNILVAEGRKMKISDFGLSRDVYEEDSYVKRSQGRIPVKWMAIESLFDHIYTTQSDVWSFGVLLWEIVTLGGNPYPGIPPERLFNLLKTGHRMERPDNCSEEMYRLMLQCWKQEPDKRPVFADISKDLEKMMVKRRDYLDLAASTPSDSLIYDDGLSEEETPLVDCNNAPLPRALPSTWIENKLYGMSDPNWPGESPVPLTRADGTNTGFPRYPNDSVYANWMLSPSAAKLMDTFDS", "test": "KINOMEscan scanMAX", "format": "binding", "conditions": "2000 nM; read-out: Percent Control"}, "[11]": {"target": "SRPK2 (Homo sapiens (Human), UniProt P78362)", "test": "KINOMEscan scanMAX", "format": "binding", "conditions": "2000 nM; read-out: Percent Control"}, "[12]": {"target": "DCAMKL2 (DCLK2) (Homo sapiens (Human), UniProt Q8N568)", "sequence (Q8N568 whole entry, looked up)": "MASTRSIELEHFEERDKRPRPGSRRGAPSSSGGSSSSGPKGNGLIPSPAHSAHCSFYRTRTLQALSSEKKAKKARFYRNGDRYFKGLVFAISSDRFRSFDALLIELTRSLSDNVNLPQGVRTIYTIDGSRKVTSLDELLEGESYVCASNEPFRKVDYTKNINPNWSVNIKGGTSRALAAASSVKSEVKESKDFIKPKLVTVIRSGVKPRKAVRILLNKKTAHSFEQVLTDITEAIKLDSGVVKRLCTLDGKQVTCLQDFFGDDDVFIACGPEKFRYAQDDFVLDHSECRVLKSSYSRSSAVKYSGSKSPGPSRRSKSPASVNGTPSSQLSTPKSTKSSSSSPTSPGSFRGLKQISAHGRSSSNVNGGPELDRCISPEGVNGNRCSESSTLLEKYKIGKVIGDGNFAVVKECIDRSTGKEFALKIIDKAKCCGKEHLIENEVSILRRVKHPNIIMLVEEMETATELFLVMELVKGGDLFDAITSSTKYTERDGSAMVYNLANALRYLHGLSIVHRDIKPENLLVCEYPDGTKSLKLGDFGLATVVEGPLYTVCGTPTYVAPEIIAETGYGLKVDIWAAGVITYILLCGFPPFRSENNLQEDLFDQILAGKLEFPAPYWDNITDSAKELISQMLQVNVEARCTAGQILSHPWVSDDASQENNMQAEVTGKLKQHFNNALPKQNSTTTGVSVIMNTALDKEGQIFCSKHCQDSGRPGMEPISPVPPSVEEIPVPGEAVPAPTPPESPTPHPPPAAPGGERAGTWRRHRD", "test": "KINOMEscan scanMAX", "format": "binding", "conditions": "2000 nM; read-out: Percent Control"}, "[13]": {"target": "JAK1(JH1domain-catalytic) (Homo sapiens (Human), UniProt P23458)", "test": "KINOMEscan scanMAX", "format": "binding", "conditions": "2000 nM; read-out: Percent Control"}, "[14]": {"target": "RSK4(Kin.Dom.1-N-terminal) (RPS6KA6) (Homo sapiens (Human), UniProt Q9UK32)", "sequence (Q9UK32 73-330)": "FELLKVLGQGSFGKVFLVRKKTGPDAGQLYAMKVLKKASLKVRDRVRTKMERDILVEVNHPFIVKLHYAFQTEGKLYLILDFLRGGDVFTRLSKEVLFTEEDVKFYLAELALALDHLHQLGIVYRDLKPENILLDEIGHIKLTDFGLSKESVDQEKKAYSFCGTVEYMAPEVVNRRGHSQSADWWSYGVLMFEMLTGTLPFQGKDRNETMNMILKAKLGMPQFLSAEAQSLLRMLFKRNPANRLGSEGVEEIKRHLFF", "test": "KINOMEscan scanMAX", "format": "binding", "conditions": "2000 nM; read-out: Percent Control"}, "[15]": {"tested_on": "HL60-Luc cells", "test": "HL60-Luc proliferation assay (BLI)", "format": "cell-based", "conditions": "HL-60-Luc, 168 h; 7 days", "experimental": "The anti-leukemic activity was also evaluated with a HL60 assay. The HL60 assay was performed by a similar procedure as MV4-11 assay. A derivative of the HL-60 leukemia cell line was generated to express Luciferase and ZsGreen by lentiviral infection with pHIV-Luc-ZsGreen, to enable leukemia growth analysis by bioluminescence imaging (BLI). The initial Luciferase-ZsGreen transduced cell population was sorted for ZsGreen positivity with fluorescence activated cell sorting and individual clones were tested for luciferase expression. […] The HL-60 assay was performed in 96-well plates by treating the HL60-Luc cells with testing compounds at different concentrations for 7 days, followed by BLI to quantify the effects of test articles on cell proliferation."}, "[16]": {"target": "WEE1 (Homo sapiens (Human), UniProt P30291)", "sequence (P30291 whole entry)": "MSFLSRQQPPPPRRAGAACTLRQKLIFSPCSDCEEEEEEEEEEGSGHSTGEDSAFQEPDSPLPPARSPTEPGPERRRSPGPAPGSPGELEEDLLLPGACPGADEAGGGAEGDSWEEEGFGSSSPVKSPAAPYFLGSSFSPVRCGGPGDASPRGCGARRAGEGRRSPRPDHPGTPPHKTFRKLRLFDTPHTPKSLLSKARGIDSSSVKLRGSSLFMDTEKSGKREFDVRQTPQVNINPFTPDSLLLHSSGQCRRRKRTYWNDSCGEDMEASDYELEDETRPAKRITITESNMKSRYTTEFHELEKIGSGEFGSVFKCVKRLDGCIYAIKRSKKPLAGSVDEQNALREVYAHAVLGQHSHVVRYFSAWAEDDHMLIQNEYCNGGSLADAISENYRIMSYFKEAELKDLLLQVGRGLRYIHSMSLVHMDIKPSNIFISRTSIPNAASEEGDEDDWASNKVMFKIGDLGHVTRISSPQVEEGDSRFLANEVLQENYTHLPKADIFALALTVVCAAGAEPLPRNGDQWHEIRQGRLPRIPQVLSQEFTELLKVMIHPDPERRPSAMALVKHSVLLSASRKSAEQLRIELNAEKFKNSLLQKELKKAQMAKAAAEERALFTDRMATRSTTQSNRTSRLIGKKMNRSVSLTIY", "test": "KINOMEscan scanMAX", "format": "binding", "conditions": "2000 nM; read-out: Percent Control"}, "[17]": {"target": "ABL1(M351T)-phosphorylated (Homo sapiens (Human), UniProt P00519, M351T)", "test": "KINOMEscan scanMAX", "format": "binding", "conditions": "2000 nM; read-out: Percent Control"}, "[18]": {"target": "HCK (Homo sapiens (Human), UniProt P08631)", "test": "KINOMEscan scanMAX", "format": "binding", "conditions": "2000 nM; read-out: Percent Control"}, "[19]": {"test": "Serum and tumor PK in mice bearing 22rv1 xenograft tumors", "format": "in vivo", "conditions": "i.p. 20 mg/kg, male NcrNU mice", "experimental": "To evaluate the PK of Senexin C in tumor tissues, Senexin C dissolved in 5% Dextrose was administered i.p. to male NcrNU mice bearing 22rv1 xenograft tumors (300˜500 mm^3) at 20 mg/kg. Both blood and tumor samples were collected at three different time points (3 mice per time point) after administration and Senexin C concentration in the serum and tumor tissue was measured by LC/MS/MS."}, "[20]": {"target": "NEK6 (Homo sapiens (Human), UniProt Q9HC98)", "sequence (Q9HC98 whole entry)": "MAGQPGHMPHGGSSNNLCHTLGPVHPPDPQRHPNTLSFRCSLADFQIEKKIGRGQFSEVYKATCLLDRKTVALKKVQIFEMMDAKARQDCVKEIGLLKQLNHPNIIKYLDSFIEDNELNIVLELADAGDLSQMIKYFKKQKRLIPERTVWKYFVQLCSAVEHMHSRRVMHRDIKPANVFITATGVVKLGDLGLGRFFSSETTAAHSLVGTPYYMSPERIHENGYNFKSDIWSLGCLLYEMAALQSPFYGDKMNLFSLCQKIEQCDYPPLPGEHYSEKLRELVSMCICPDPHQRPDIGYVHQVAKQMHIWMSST", "test": "KINOMEscan scanMAX", "format": "binding", "conditions": "2000 nM; read-out: Percent Control"}, "[21]": {"target": "TAK1 (MAP3K7) (Homo sapiens (Human), UniProt O43318)", "test": "KINOMEscan scanMAX", "format": "binding", "conditions": "2000 nM; read-out: Percent Control"}, "[22]": {"target": "BMPR2 (Homo sapiens (Human), UniProt Q13873)", "test": "KINOMEscan scanMAX", "format": "binding", "conditions": "2000 nM; read-out: Percent Control"}, "[23]": {"target": "PIK3CD (Homo sapiens (Human), UniProt O00329)", "test": "KINOMEscan scanMAX", "format": "binding", "conditions": "2000 nM; read-out: Percent Control"}, "[24]": {"target": "CSNK1D (Homo sapiens (Human), UniProt P48730)", "test": "KINOMEscan scanMAX", "format": "binding", "conditions": "2000 nM; read-out: Percent Control"}, "[25]": {"target": "PFPK5(P.falciparum) (MAL13P1.279) (Plasmodium falciparum (isolate 3D7), UniProt P61075)", "test": "KINOMEscan scanMAX", "format": "binding", "conditions": "2000 nM; read-out: Percent Control"}, "[26]": {"target": "STK39 (Homo sapiens (Human), UniProt Q9UEW8)", "test": "KINOMEscan scanMAX", "format": "binding", "conditions": "2000 nM; read-out: Percent Control"}, "[27]": {"target": "MET(Y1235D) (Homo sapiens (Human), UniProt P08581, Y1235D)", "test": "KINOMEscan scanMAX", "format": "binding", "conditions": "2000 nM; read-out: Percent Control"}, "[28]": {"target": "CDK8 (Homo sapiens (Human), UniProt P49336)", "sequence (P49336 whole entry)": "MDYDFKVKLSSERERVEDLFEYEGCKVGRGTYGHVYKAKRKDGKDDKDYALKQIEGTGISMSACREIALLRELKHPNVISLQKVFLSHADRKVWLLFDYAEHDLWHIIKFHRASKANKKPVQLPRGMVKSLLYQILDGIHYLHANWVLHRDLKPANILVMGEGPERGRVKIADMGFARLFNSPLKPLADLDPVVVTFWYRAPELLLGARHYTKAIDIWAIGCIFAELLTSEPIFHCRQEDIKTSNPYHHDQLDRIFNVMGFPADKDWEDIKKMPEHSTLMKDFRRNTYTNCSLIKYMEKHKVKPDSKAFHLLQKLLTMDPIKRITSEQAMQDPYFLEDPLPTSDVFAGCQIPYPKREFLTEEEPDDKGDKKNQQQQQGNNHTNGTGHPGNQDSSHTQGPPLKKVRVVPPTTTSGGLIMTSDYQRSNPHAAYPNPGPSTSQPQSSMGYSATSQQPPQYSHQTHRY", "test": "DiscoverX Kd assay"}, "[29]": {"target": "GSK3A (Homo sapiens (Human), UniProt P49840)", "test": "KINOMEscan scanMAX", "format": "binding", "conditions": "2000 nM; read-out: Percent Control"}, "[30]": {"target": "TIE1 (Homo sapiens (Human), UniProt P35590)", "test": "KINOMEscan scanMAX", "format": "binding", "conditions": "2000 nM; read-out: Percent Control"}, "[31]": {"target": "ULK2 (Homo sapiens (Human), UniProt Q8IYT8)", "test": "KINOMEscan scanMAX", "format": "binding", "conditions": "2000 nM; read-out: Percent Control"}, "[32]": {"target": "MAP4K5 (Homo sapiens (Human), UniProt Q9Y4K4)", "test": "KINOMEscan scanMAX", "format": "binding", "conditions": "2000 nM; read-out: Percent Control"}, "[33]": {"target": "TRKB (NTRK2) (Homo sapiens (Human), UniProt Q16620)", "test": "KINOMEscan scanMAX", "format": "binding", "conditions": "2000 nM; read-out: Percent Control"}},
  "data": [
    {"smiles": "CN1CCN(C(=O)c2ccc3cc(CCNc4ccnc5ccc(C#N)cc45)ccc3c2)CC1", "note": "[compound 6148, 4-((2-(6-(4-methylpiperazine-1-carbonyl)naphthalen-2-yl)ethyl)amino)quinoline-6-carbonitrile]", "values": [
      {"measurement": "remaining binding at 2 µM", "setting": "[1]", "value": 84, "unit": "%"},
      {"measurement": "remaining binding at 2 µM", "setting": "[2]", "value": 91, "unit": "%"},
      {"measurement": "remaining binding at 2 µM", "setting": "[3]", "value": 100, "unit": "%"},
      {"measurement": "remaining binding at 2 µM", "setting": "[4]", "value": 67, "unit": "%"},
      {"measurement": "remaining binding at 2 µM", "setting": "[5]", "value": 76, "unit": "%"},
      {"measurement": "remaining binding at 2 µM", "setting": "[6]", "value": 100, "unit": "%"},
      {"measurement": "remaining binding at 2 µM", "setting": "[7]", "value": 92, "unit": "%"},
      {"measurement": "remaining binding at 2 µM", "setting": "[8]", "value": 82, "unit": "%"},
      {"measurement": "Kd", "setting": "[9]", "value": 44, "unit": "nM"},
      {"measurement": "remaining binding at 2 µM", "setting": "[10]", "value": 88, "unit": "%"},
      {"measurement": "remaining binding at 2 µM", "setting": "[11]", "value": 94, "unit": "%"},
      {"measurement": "remaining binding at 2 µM", "setting": "[12]", "value": 94, "unit": "%"},
      {"measurement": "remaining binding at 2 µM", "setting": "[13]", "value": 94, "unit": "%"},
      {"measurement": "remaining binding at 2 µM", "setting": "[14]", "value": 60, "unit": "%"},
      {"measurement": "IC50", "setting": "[15]", "value": 114, "unit": "nM"},
      {"measurement": "remaining binding at 2 µM", "setting": "[16]", "value": 88, "unit": "%"},
      {"measurement": "remaining binding at 2 µM", "setting": "[17]", "value": 80, "unit": "%"},
      {"measurement": "remaining binding at 2 µM", "setting": "[18]", "value": 96, "unit": "%"},
      {"measurement": "Clearance from tumor tissue compared with blood", "setting": "[19]", "value": "much slower clearance rate"},
      {"measurement": "Kp", "setting": "[19]; mouse, tumor tissue (relative to serum), ip, read-out: Amount in tumor tissue relative to blood", "value": "5 to 10"},
      {"measurement": "remaining binding at 2 µM", "setting": "[20]", "value": 93, "unit": "%"},
      {"measurement": "remaining binding at 2 µM", "setting": "[21]", "value": 63, "unit": "%"},
      {"measurement": "remaining binding at 2 µM", "setting": "[22]", "value": 66, "unit": "%"},
      {"measurement": "remaining binding at 2 µM", "setting": "[23]", "value": 61, "unit": "%"},
      {"measurement": "remaining binding at 2 µM", "setting": "[24]", "value": 87, "unit": "%"},
      {"measurement": "remaining binding at 2 µM", "setting": "[25]", "value": 70, "unit": "%"},
      {"measurement": "remaining binding at 2 µM", "setting": "[26]", "value": 44, "unit": "%"},
      {"measurement": "remaining binding at 2 µM", "setting": "[27]", "value": 78, "unit": "%"},
      {"measurement": "Kd", "setting": "[28]", "value": 55, "unit": "nM"},
      {"measurement": "remaining binding at 2 µM", "setting": "[29]", "value": 94, "unit": "%"},
      {"measurement": "remaining binding at 2 µM", "setting": "[30]", "value": 85, "unit": "%"},
      {"measurement": "remaining binding at 2 µM", "setting": "[31]", "value": 71, "unit": "%"},
      {"measurement": "remaining binding at 2 µM", "setting": "[32]", "value": 95, "unit": "%"},
      {"measurement": "remaining binding at 2 µM", "setting": "[33]", "value": 57, "unit": "%"}
    ]}
  ]
}
